pIC50: −log10 of the molar value. Entries after “also recorded” stand apart in the source; their conditions may differ.
What was measured:
HIV-1 92TH006 = assay: HIV infectivity assay in TZM-bl cells; format: cell-based; conditions: 92TH006 (clade E, R5); for pIC50: Human immunodeficiency virus 1, TZM-bl
SIVsyk1.2 = assay: SIV infectivity assay in TZM-bl cells; format: cell-based; conditions: Simian immunodeficiency virus, first value cell of the line (cells shifted; presumably DMEM)
HIV-1 clinical isolates = assay: Anti-HIV efficacy in fresh human PBMC (all isolates, summary); format: cell-based; conditions: Human immunodeficiency virus 1, PBMC; eight HIV-1 clinical isolates in PBMCs
Jc1 HCVcc = assay: microbe, parasite or virus in culture; format: cell-based, HCV; conditions: Hepatitis C virus, Huh7.5, read-out: IC50, inactivation of cell-free HCVcc
VSV-Gpp [1] = format: cell-based, HIV lentivirus pseudotyped with VSV-G
VSV-Gpp [2] = format: physicochemical, HIV lentivirus pseudotyped with VSV-G
HIV-1 93BR020 = assay: HIV infectivity assay in TZM-bl cells; format: cell-based; conditions: 93BR020 (clade F, X4); for pIC50: Human immunodeficiency virus 1, TZM-bl
HCVcc [3] = test system: HCVcc; design: species or system HCV
HIV-1 93TH053 = assay: HIV infectivity assay in TZM-bl cells; format: cell-based; conditions: 93TH053 (clade E, X4); for pIC50: Human immunodeficiency virus 1, TZM-bl
HIV-1 98IN022 = assay: Anti-HIV efficacy in fresh human PBMC (reverse transcriptase activity); format: cell-based; conditions: Human immunodeficiency virus 1, PBMC, 168 h; 98IN022 (clade C, R5); PBMCs, MOI = 0.1, 7 days
Sindbis virus (SINV) = assay: Sindbis virus plaque assay on BHK-J cells; format: cell-based; conditions: 300 μM PD
HIV-1 93IN017 = assay: HIV infectivity assay in TZM-bl cells; format: cell-based; conditions: 93IN017 (clade C, X4); for pIC50: Human immunodeficiency virus 1, TZM-bl
Lactobacilli = assay: Lactobacillus toxicity testing (all strains, summary); format: cell-based; conditions: 300 μM PD, 37° C., 30 min
Experimental: (§1) Reference strains of L. crispatus and L. jensenii were obtained from the ATCC (Manassas, Va.) and cultured on Columbia blood agar plates at 35° C. in air enriched with 6% CO2. Bacterial suspensions were prepared in saline or ACES buffer to a density of 2 McFarland units (˜2×10^8 bacteria/mL), and exposed to PD (300 μM) or DMSO (10%) for 30 minutes at 37° C. After incubation, the cells were serially diluted in ACES buffer, pH 7.0 (Sigma-Aldrich, St. Louis, Mo.) and plated on blood agar plates to quantify colony forming unit per mL (CFU/mL)
(§2) Different bacterial strains were incubated with 300 μM PD or solvent DMSO-containing control media at 37° C. for 30 min and plated on blood agar plates to estimate their corresponding colony forming units per ml (CFU/ml). Less than 1 log difference between control and test CFU is considered non-toxic 17.

[4] = as above; format: cell-based; conditions: Lactobacillus (L. crispatus and L. jensenii), suspensions of vaginal commensal Lactobacillus strains; vaginal commensal bacteria Lactobacilli
Experimental: as §1, §2

[5] = test system: pseudotyped NL4.3 Env-eGFP/gp160 Env virus; assay: HIV-1 cell-to-cell transfer assay (DC to Jurkat T cells); format: cell-based; conditions: 10 μM PD added to DC 2 h after virus, washed after 2 h
HCVcc [6] = assay: HCVcc cell attachment assay; format: cell-based, HCV; conditions: 300 μM PD, 37° C., 90 min; cell-bound viral RNA by qRT-PCR
HIV-1 92RW021 = assay: HIV infectivity assay in TZM-bl cells; format: cell-based; conditions: 92RW021 (clade A, R5); for pIC50: Human immunodeficiency virus 1, TZM-bl
[7] = Primary cells toxicity testing (LDH); format: cell-based; conditions: human, primary CD4+ T-lymphocytes, macrophages and dendritic cells, up to 14 days
Experimental: Increasing concentrations were incubated with primary CD4^+ T-lymphocytes, macrophages and dendritic cells at 37° C. and the amounts of lactate dehydrogenase (LDH) present in the culture media were quantified after 0, 7 and 14 days. Error bars represent the standard deviation from two independent experiments.
Primary cells were seeded at 6×10^3 cells/well in flat bottom 96-well plates in triplicates in the presence of increasing concentrations of PD. We used the permeabilization agent saponin (0.1%) as positive control. After 0, 7 and 14 days, the amounts of lactate dehydrogenase (LDH) in the cell culture media were quantified using the LDH Cytotoxicity Assay Kit (Cayman Chemical, Ann Arbor, Mich.).
Cell death can occur either by apoptosis or by necrosis. Necrosis is accompanied by mitochondrial swelling and increased plasma membrane permeability, whereas apoptosis involves an articulated breakdown of the cell into membrane-bound apoptotic bodies. Lactate dehydrogenase (LDH) is a soluble cytosolic enzyme that is released into the culture medium following loss of membrane integrity resulting from either apoptosis or necrosis. LDH activity, therefore, can be used as an indicator of cell membrane integrity and serves as a general means to assess cytotoxicity resulting from chemical compounds or environmental toxic factors. […]

For N=C1Sc2ccccc2C2=NCCCN12 [PD, PD 404,182], the “IC50 (DMEM; IC90 per footnote)” value (HIV-1 92TH006; PD in DMEM + 10% FBS) was 6.6 ± 0.4 µM, the “IC50 (Cervical Fluid; IC90 per footnote)” value (HIV-1 92TH006; PD in cervical fluids) was 7.6 ± 0.6 µM and the “IC50 (Seminal Plasma; IC90 per footnote)” value (HIV-1 92TH006; PD in seminal plasma) was 6.73 ± 0.51 µM. The pIC50 (HIV-1 92TH006; PD in DMEM + 10% FBS) was 5.74, the pIC50 (HIV-1 92TH006; PD in cervical fluids) was 5.64 and the pIC50 (HIV-1 92TH006; PD in seminal plasma) was 5.71. It also gave a pIC50 (SIVsyk1.2) of 5.72, a pIC50 (HIV-1 clinical isolates) of 6.26 and a pIC50 (Jc1 HCVcc) of 4.96. The “reversal of PD's antiviral effect by liposomes” value (VSV-Gpp [1]) was “not able to reverse PD's antiviral effect”, the “long-term stability (antiviral potency)” value (VSV-Gpp [2]; pH 4) was “retains full antiviral potency; also recorded: retains its full potency” and the long-term stability (VSV-Gpp [2]; pH 7) was “stable only at room temperature and 4 °C; also recorded: significantly compromised PD activity after 2 weeks”. The “stability in HEC gel” value (VSV-Gpp [2]; pH 7) was “not stable”, the IC90 (HIV-1 93BR020; PD in DMEM + 10% FBS) was 6.9 ± 0.4 µM and the IC90 (HIV-1 93BR020; PD in cervical fluids) was 7.5 ± 0.4 µM. It also gave an IC90 (HIV-1 93BR020; PD in seminal plasma) of 7.19 ± 0.62 µM, a pIC50 (HIV-1 93BR020; PD in DMEM + 10% FBS) of 5.85 and a pIC50 (HIV-1 93BR020; PD in cervical fluids) of 5.72. It also gave a pIC50 (HIV-1 93BR020; PD in seminal plasma) of 5.79, an HCVcc virion lysis (HCVcc [3]) of 27% and an IC90 (HIV-1 93TH053; PD in DMEM + 10% FBS) of 5.3 ± 0.3 µM. The IC90 (HIV-1 93TH053; PD in cervical fluids) was 6.4 ± 0.4 µM, the IC90 (HIV-1 93TH053; PD in seminal plasma) was 6.65 ± 0.48 µM and the pIC50 (HIV-1 93TH053; PD in DMEM + 10% FBS) was 5.85. It also gave a pIC50 (HIV-1 93TH053; PD in cervical fluids) of 5.74, a pIC50 (HIV-1 93TH053; PD in seminal plasma) of 5.78 and a pIC50 (HIV-1 98IN022) of 6.40. For the same compound, the IC90 (HIV-1 98IN022) was 1.48 µM, the “effect on infectivity of SINV” value (Sindbis virus (SINV)) was “no significant inhibitory effect” and the “IC50 (DMEM; IC90 per footnote)” value (HIV-1 93IN017; PD in DMEM + 10% FBS) was 1.9 ± 0.2 µM. The “IC50 (Cervical Fluid; IC90 per footnote)” value (HIV-1 93IN017; PD in cervical fluids) was 2.4 ± 0.2 µM, the “IC50 (Seminal Plasma; IC90 per footnote)” value (HIV-1 93IN017; PD in seminal plasma) was 2.09 ± 0.19 µM and the pIC50 (HIV-1 93IN017; PD in DMEM + 10% FBS) was 6.40. The pIC50 (HIV-1 93IN017; PD in cervical fluids) was 6.15, the pIC50 (HIV-1 93IN017; PD in seminal plasma) was 6.35 and the “effect on Lactobacillus strains” value (Lactobacilli) was “no adverse effect on all strains of bacteria tested”. For the same compound, the CC50 at 30 min [4] was > 300 µM, the “DC-mediated transmission of HIV-1 to T cells” value [5] was “prevents subsequent T cell infection with the pseudotyped virus” and the “attachment of PD-treated HCVcc to cells” value (HCVcc [6]) was “binds to cells comparably to control DMSO-treated virus”. The IC90 (HIV-1 92RW021; PD in DMEM + 10% FBS) was 3.8 ± 0.3 µM, the IC90 (HIV-1 92RW021; PD in cervical fluids) was 4.4 ± 0.2 µM and the IC90 (HIV-1 92RW021; PD in seminal plasma) was 4.62 ± 0.32 µM. It also gave a pIC50 (HIV-1 92RW021; PD in DMEM + 10% FBS) of 6.37, a pIC50 (HIV-1 92RW021; PD in cervical fluids) of 6.17 and a pIC50 (HIV-1 92RW021; PD in seminal plasma) of 6.24. For the same compound, the CC50 at 14 days [7] was > 300 µM.

Source: patent US20140227335A1 (priority 2012, published 2014)
